A melting point of 125 to 128 °C was found for `CCN1C(=O)OCC(=O)N1Cc1ccc(Cl)nc1` [Example I-16, 4-(2-chloro-5-pyridylmethyl)-3-ethyl-1,3,4-oxadiazine-2,5-dione] in this work.

Reference: patent US6414158B1, “1,3,4-oxadiazine derivatives and their use as pesticides” (Bayer AKtiengesellschaft, priority 1996, dated 2002)
